# In US8410161B2, “Thioxanthone ring system derivatives” (National Defense Medical Center, priority 2010, dated 2013):
# Where two headings read alike, the source gives them in different places.
# Columns and labels:
# Type in all cases: cell-based
# SF-539 = test: NCI in vitro DTP human cell line screen, SF-539; conditions: CNS Cancer, 1.00E−5 Molar
# Description: (§1) Then, a cell toxicity assay of the cancer lines made by National Cancer Institute will be discussed as follows. The cell toxicity assay is performed by choosing ten compounds (existing certification numbers) from the 59 compounds disclosed in the present invention first.
# HOP-92 = test: NCI in vitro DTP human cell line screen, HOP-92; conditions: Non-Small Cell Lung Cancer, 1.00E−5 Molar
# Description: as §1
# UO-31 = test: NCI in vitro DTP human cell line screen, UO-31; conditions: Renal Cancer, 1.00E−5 Molar
# Description: as §1
# NCI-H322M = test: NCI in vitro DTP human cell line screen, NCI-H322M; conditions: Non-Small Cell Lung Cancer, 1.00E−5 Molar
# Description: as §1
# EKVX = test: NCI in vitro DTP human cell line screen, EKVX; conditions: Non-Small Cell Lung Cancer, 1.00E−5 Molar
# Description: as §1
# SF-295 = test: NCI in vitro DTP human cell line screen, SF-295; conditions: CNS Cancer, 1.00E−5 Molar
# Description: as §1
# ACHN = test: NCI in vitro DTP human cell line screen, ACHN; conditions: Renal Cancer, 1.00E−5 Molar
# Description: as §1
# [1] = MTT assay, HEL299 fibroblast; conditions: human
# Description: (§2) Please refer to FIG. 4C, various cell viabilities of the HEL299 cell lines can be obtained through the MTT assay while the compounds No. 1˜30 are used to treat HEL299 cell lines, wherein HEL299 cell lines are fibroblast.
# OVCAR-4 = test: NCI in vitro DTP human cell line screen, OVCAR-4; conditions: Ovarian Cancer, 1.00E−5 Molar
# Description: as §1
# K562 = test: NCI in vitro DTP human cell line screen, K562; conditions: Leukemia, 1.00E−5 Molar
# Description: as §1
# MDA-MB-468 = test: NCI in vitro DTP human cell line screen, MDA-MB-468; conditions: Breast Cancer, 1.00E−5 Molar
# Description: as §1
# NCI-H522 = test: NCI in vitro DTP human cell line screen, NCI-H522; conditions: Non-Small Cell Lung Cancer, 1.00E−5 Molar
# Description: as §1
# HS 578-T = test: NCI in vitro DTP human cell line screen, HS 578-T; conditions: Breast Cancer, 1.00E−5 Molar
# Description: as §1
# LOX IMVI = test: NCI in vitro DTP human cell line screen, LOX IMVI; conditions: Melanoma, 1.00E−5 Molar
# Description: as §1
# HEL299 fibroblast = test: MTT assay, HEL299 fibroblast
# Description: as §2
Structure (SMILES),Growth Percent (SF-539),Growth Percent (HOP-92),Growth Percent (UO-31),Growth Percent (NCI-H322M),Growth Percent (EKVX),Growth Percent (SF-295),Growth Percent (ACHN),viability [1],Growth Percent (OVCAR-4),Growth Percent (K562),Growth Percent (MDA-MB-468),Growth Percent (NCI-H522),Growth Percent (HS 578-T),Growth Percent (LOX IMVI),"cell viabilities of HEL299 cell lines (MTT assay) (HEL299 fibroblast; HEL299, normal fibroblast)","viability ([1]; HEL299, normal fibroblast, read-out: cell viabilities of HEL299 cell lines (MTT assay))",cytotoxicity effect on the normal fibroblast (in words) (HEL299 fibroblast)
"CCCSc1ccc2c(=O)c3ccccc3sc2c1Cl [No. 3, 4-Chloro-3-(propylthio)-9H-thioxanthen-9-one]",82.48%,98.11%,99.45%,73.70%,96.42%,82.14%,74.17%,88.9 ± 11.1%,73.74%,94.26%,91.53%,94.37%,94.80%,64.69%,,,
"O=c1c2ccccc2sc2c(Cl)c(SCc3ccccc3)ccc12 [No. 23, 3-(Benzylthio)-4-chloro-9H-thioxanthen-9-one]",102.89%,74.60%,66.76%,70.18%,93.46%,63.22%,26.15%,,15.10%,86.95%,73.81%,95.48%,91.28%,62.94%,85.2 ± 5.26%,82.5%,
"O=c1c2ccccc2sc2c(Cl)c(SCc3ccc(Cl)cc3)ccc12 [No. 26, 4-Chloro-3-(4-chlorobenzylthio)-9H-thioxanthen-9-one]",96.81%,69.89%,89.66%,101.60%,110.82%,112.42%,91.82%,58.7 ± 5.55%,107.67%,113.64%,96.96%,81.19%,108.61%,97.16%,,,
"COc1ccc(CSc2ccc3c(=O)c4ccccc4sc3c2Cl)cc1 [No. 27, 4-Chloro-3-(4-methoxybenzylthio)-9H-thioxanthen-9-one]",106.78%,78.71%,102.53%,95.82%,114.01%,107.03%,104.71%,92.4%,104.27%,114.13%,102.80%,94.65%,124.03%,101.59%,,,without the cytotoxicity effect
